Data: the NIST ThermoML archive (doi:10.1016/j.tca.2010.11.013)

Assay: wn = mass fraction of the nth substance listed
Conditions: 101 kPa, Liquid; for speed of sound: Sing-around technique in a fixed-path interferometer; for mass density: Vibrating tube method

O=C(CO)[C@@H](O)[C@H](O)[C@H](O)CO [D-fructose] + O
Conditions | mass density, 288.15 K [kg/m3] | mass density, 293.15 K [kg/m3] | mass density, 298.15 K [kg/m3] | mass density, 303.15 K [kg/m3] | mass density, 308.15 K [kg/m3] | speed of sound, 288.15 K [m/s] | speed of sound, 293.15 K [m/s] | speed of sound, 298.15 K [m/s] | speed of sound, 303.15 K [m/s] | speed of sound, 308.15 K [m/s]
w1 = 0.0209 | – | – | 1005.17 | 1003.7 | 1002.02 | 1476.2 | 1492 | – | 1517.3 | 1527
w1 = 0.0389 | 1014.62 | 1013.56 | 1012.26 | – | 1009 | 1483.1 | 1498.5 | 1512 | – | 1533.2
w1 = 0.0611 | 1023.64 | 1022.5 | 1021.11 | 1019.51 | 1017.71 | – | 1507.8 | 1520.8 | 1531.8 | –

OC[C@H]1O[C@@](CO)(O[C@H]2O[C@H](CO)[C@@H](O)[C@H](O)[C@H]2O)[C@@H](O)[C@@H]1O [D-sucrose] + O
Conditions | mass density, 288.15 K [kg/m3] | mass density, 293.15 K [kg/m3] | mass density, 298.15 K [kg/m3] | mass density, 303.15 K [kg/m3] | mass density, 308.15 K [kg/m3] | speed of sound, 288.15 K [m/s] | speed of sound, 293.15 K [m/s] | speed of sound, 298.15 K [m/s] | speed of sound, 303.15 K [m/s] | speed of sound, 308.15 K [m/s]
w1 = 0.0214 | 1007.5 | 1006.55 | 1005.34 | 1003.89 | 1002.24 | 1473.1 | 1489 | 1503 | 1515.1 | 1525.3
w1 = 0.0419 | 1015.59 | 1014.59 | 1013.33 | 1011.85 | 1010.16 | 1479.3 | 1495.1 | 1508.8 | 1520.5 | 1530.4
w1 = 0.0614 | 1023.45 | 1022.4 | 1021.1 | 1019.58 | 1017.85 | 1486.3 | 1501.8 | 1515.3 | 1526.8 | 1536.7
